Legend:
[1] = target: T1, Vascular endothelial growth factor receptor 2 (Homo sapiens, UniProt P35968); assay: Inhibition of human VEGFR2 in presence of 1 mM ATP
[2] = target: T1, Vascular endothelial growth factor receptor 2; assay: Inhibition of human VEGFR2 in presence of 1 uM ATP
[3] = target: T2, Epidermal growth factor receptor (Homo sapiens, UniProt P00533); assay: Inhibition of human EGFR in presence of 1 mM ATP
[4] = target: T2, Epidermal growth factor receptor; assay: Inhibition of human EGFR in presence of 1 uM ATP

T2 sequence (P00533 whole entry): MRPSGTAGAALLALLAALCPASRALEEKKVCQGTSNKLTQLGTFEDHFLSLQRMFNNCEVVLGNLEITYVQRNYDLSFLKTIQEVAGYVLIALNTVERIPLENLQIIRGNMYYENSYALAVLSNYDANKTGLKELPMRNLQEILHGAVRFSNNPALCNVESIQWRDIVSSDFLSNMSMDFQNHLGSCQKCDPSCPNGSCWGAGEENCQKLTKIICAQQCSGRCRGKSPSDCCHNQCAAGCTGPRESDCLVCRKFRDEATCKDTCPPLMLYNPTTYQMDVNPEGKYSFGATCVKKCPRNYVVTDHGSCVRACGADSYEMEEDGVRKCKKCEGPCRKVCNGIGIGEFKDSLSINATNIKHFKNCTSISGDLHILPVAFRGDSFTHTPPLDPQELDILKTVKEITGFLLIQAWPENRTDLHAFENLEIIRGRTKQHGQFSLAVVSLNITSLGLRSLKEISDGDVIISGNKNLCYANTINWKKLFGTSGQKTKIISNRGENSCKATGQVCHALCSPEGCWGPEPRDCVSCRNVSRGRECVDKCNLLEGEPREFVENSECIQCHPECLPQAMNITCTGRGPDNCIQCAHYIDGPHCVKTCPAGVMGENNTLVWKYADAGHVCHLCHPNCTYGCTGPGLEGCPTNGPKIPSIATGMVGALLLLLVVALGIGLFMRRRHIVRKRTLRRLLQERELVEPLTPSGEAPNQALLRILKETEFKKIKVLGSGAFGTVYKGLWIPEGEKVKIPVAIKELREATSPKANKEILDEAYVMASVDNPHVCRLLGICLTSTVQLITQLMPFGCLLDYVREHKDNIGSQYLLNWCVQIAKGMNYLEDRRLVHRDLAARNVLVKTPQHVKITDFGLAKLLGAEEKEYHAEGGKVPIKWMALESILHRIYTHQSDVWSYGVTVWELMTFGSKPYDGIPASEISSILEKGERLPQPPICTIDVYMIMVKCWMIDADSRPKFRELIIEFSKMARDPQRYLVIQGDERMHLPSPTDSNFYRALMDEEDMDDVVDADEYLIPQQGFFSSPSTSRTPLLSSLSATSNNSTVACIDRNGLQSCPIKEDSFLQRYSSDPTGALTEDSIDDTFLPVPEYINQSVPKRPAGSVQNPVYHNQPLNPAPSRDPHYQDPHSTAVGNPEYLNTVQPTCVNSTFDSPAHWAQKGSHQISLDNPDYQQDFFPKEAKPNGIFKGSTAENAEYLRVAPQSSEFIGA
T1 sequence (P35968 whole entry): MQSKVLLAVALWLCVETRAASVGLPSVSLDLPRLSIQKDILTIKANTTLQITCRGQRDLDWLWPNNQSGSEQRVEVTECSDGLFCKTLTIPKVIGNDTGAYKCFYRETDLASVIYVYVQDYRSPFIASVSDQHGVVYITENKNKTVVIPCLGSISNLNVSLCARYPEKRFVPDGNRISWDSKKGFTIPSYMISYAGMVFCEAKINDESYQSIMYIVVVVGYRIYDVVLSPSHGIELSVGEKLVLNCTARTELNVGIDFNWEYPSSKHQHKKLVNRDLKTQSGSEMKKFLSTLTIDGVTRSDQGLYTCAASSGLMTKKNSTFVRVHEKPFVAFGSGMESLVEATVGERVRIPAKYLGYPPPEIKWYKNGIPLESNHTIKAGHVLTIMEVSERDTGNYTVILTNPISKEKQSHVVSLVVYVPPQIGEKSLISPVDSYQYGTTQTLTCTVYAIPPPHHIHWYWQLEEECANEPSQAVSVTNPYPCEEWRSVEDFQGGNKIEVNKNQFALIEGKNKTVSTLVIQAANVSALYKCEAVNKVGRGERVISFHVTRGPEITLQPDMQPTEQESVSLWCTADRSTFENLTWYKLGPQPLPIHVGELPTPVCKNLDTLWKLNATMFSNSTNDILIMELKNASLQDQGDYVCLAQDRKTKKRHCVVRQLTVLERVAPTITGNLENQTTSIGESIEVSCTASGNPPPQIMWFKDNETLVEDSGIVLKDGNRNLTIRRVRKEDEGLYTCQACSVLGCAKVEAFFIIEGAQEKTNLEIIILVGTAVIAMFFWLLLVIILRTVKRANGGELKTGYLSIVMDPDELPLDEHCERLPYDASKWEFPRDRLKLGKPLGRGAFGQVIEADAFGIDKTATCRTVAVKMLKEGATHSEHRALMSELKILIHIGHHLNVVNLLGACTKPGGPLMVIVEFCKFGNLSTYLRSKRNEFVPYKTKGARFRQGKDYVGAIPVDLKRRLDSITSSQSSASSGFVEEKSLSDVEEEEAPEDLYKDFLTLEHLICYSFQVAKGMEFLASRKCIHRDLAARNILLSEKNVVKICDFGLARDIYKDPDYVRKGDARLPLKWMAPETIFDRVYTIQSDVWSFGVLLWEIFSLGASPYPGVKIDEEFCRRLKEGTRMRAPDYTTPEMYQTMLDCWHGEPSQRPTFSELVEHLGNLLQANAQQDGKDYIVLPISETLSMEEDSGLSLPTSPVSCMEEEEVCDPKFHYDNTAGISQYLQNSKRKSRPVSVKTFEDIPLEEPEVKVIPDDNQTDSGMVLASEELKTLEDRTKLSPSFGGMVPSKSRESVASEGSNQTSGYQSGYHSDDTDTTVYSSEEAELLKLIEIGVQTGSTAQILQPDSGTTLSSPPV

Row | IC50 [1] | IC50 [2] | IC50 [3] | IC50 [4] | SMILES
1 | 1280 nM | 372 nM | 347 nM | 107 nM | CCOc1cc2ncnc(NC3=CC(=O)C(OCc4cccc(OC)c4)=CC3=O)c2cc1NC(=O)/C=C/CN(C)C
2 | 613 nM | 189 nM | 173 nM | 24.9 nM | CCOc1cc2ncnc(NC3=CC(=O)C(OCc4cccc(C)c4)=CC3=O)c2cc1NC(=O)/C=C/CN(C)C
3 |  |  | 704 nM | < 10 nM | CN(C)C/C=C/C(=O)Nc1ccc2ncnc(Nc3ccc(Br)cc3F)c2c1
4 | 250 nM | 50.2 nM | > 10000 nM | 7710 nM | COCCOc1cc2ncnc(NC3=CC(=O)C(OCc4cccc(OC)c4)=CC3=O)c2cc1OC
5 | 140 nM | 53.7 nM | > 10000 nM | > 10000 nM | COCCOc1cc2ncnc(NC3=CC(=O)C(OCc4ccccc4)=CC3=O)c2cc1OC
6 | 303 nM | 109 nM | 2090 nM | 283 nM | CCOc1cc2ncnc(NC3=CC(=O)C(OC(CF)CF)=CC3=O)c2cc1NC(=O)/C=C/CN(C)C
7 | 550 nM | 112 nM | 894 nM | 167 nM | CCOc1cc2ncnc(NC3=CC(=O)C(OCc4ccc(F)c(F)c4)=CC3=O)c2cc1NC(=O)/C=C/CN(C)C
8 | 783 nM | 102 nM | 216 nM | 18.7 nM | CCOc1cc2ncnc(NC3=CC(=O)C(OCc4ccccc4)=CC3=O)c2cc1NC(=O)/C=C/CN(C)C
9 | 179 nM | 80.2 nM | 35.6 nM | 12.2 nM | CCOc1cc2ncnc(NC3=CC(=O)C(OCc4cccc(Cl)c4)=CC3=O)c2cc1NC(=O)/C=C/CN(C)C
10 | 298 nM | 76.2 nM | 295 nM | 47.5 nM | CCOc1cc2ncnc(NC3=CC(=O)C(OCc4cccs4)=CC3=O)c2cc1NC(=O)/C=C/CN(C)C
11 | > 10000 nM | 1490 nM |  |  | COc1cc2ncnc(Nc3cccc(Br)c3)c2cc1OC
12 | 188 nM | 46.1 nM | > 10000 nM | > 10000 nM | COCCOc1cc2ncnc(NC3=CC(=O)C(OCc4cccc(F)c4)=CC3=O)c2cc1OC
13 | 1010 nM | 135 nM | 792 nM | 90.8 nM | CCOc1cc2ncnc(NC3=CC(=O)C(OCc4ccccn4)=CC3=O)c2cc1NC(=O)/C=C/CN(C)C
14 | 1400 nM | 379 nM | > 10000 nM | 799 nM | CCOc1cc2ncnc(NC3=CC(=O)C(OC)=CC3=O)c2cc1NC(=O)/C=C/CN(C)C
15 | 348 nM | 113 nM | 43.1 nM | 4.1 nM | CCOc1cc2ncnc(NC3=CC(=O)C(OCc4cccc(F)c4)=CC3=O)c2cc1NC(=O)/C=C/CN(C)C
16 | > 10000 nM | 858 nM |  |  | CCOc1cc2ncc(C#N)c(Nc3ccc(OCc4ccccn4)c(Cl)c3)c2cc1NC(=O)/C=C/CN(C)C [NERATINIB]
17 | > 10000 nM | 3130 nM |  |  | CCOc1cc2ncc(C#N)c(Nc3ccc(F)c(Cl)c3)c2cc1NC(=O)/C=C/CN(C)C [PELITINIB]

From ChEMBL document CHEMBL1147965, “Dual irreversible kinase inhibitors: quinazoline-based inhibitors incorporating two independent reactive centers with each targeting different cysteine residues in the kinase domains of EGFR and VEGFR-2” (Bioorg Med Chem, 2007)
